Data from publication PMC4790291, “Short, Synthetic Cationic Peptides Have Antibacterial Activity against Mycobacterium smegmatis by Forming Pores in Membrane and Synergizing with Antibiotics” (Antibiotics, 2015).
Values after ≈ are worked out from the molar mass of the structure shown. Values joined by “and” are separate entries in the source; they are usually repeats but may differ in a detail not shown here. Equal values may be shown once. Read-outs that look alike come from different tables or passages of the source. Positions of bridges follow the written chain, without caps; N, C: chain ends. Non-standard residues stand in square brackets, D forms with d. Residues, ends and D or L forms follow the SMILES beside them. No end group written: not given here. *: point of attachment. X1 = CC[C@H](C)CCCCC(=O)*; Dab = NCC[C@H](N)C(=O)O

Assays:
M. smegmatis [1] = conditions: for MIC Alone / MIC Combined (antibiotic): checkerboard; for MIC Alone: 37 °C, about 10^5 CFU/mL, single agent; for FIC (peptide) / FIC (antibiotic): MIC in combination/MIC alone; for FICI: FICI ≤ 0.5 synergy, 0.5-1.0 additive, 1.0-4.0 indifferent, > 4.0 antagonism
M. smegmatis membrane = experiment: Bacterial cytoplasmic membrane depolarization assay, DiSC3(5); format: cell-based, Mycobacterium smegmatis
Procedure: Membrane depolarization assay was studied using DiSC3(5) as previously reported. Depolarization of a membrane can be visualized by a […] in fluorescence. After interaction with intact cytoplasmic membrane, the fluorescent probe DiSC3(5) was quenched. After incubation with the antimicrobial peptide, the membrane potential was lost, and the probe was released to the medium, ensuing in an increase of fluorescence that can be quantified and monitored as a function of time. In brief, enumerated frozen bacteria were pelleted and washed twice in phosphate buffer (pH 7.2) and then resuspended to 4 × 10^7 CFU/mL in phosphate buffer containing 50 μg/mL DiSC3(5). Then, 100 uLs of this suspension was added to wells of a black 96-well plate. The plate was incubated in a TECAN Safire2 spectrofluorometer and monitored until fluorescence leveled off. Next, 100 μLs of various concentrations of peptide in phosphate buffer (pH 7.2) were added to each well. Bacteria without peptide and peptide without bacteria served as controls. The plate was immediately returned to the spectrofluorometer. Readings were taken every 15 s for 5 min (excitation = 622 nm; emission = 670 nm).
Figure 1 Membrane depolarization activity by LL-37, mCRAMP, hBD3-Pep4, ATRA-1A, ATRA-2, and NA-CATH. Depolarization determined using DiSC3(5) (50 μg/mL) at multiple concentrations of peptide (50, 25, 5, and 0.5 μg/mL). […]

M. smegmatis mc^2155 [2] = tested on: M. smegmatis mc^2155
Procedure: (§1) The antimicrobial activity for each peptide was determined through 3 h incubation time. The appropriate dilutions of each well were plated in triplicate and the extent of killing for the peptides were determined.
(§2) Briefly, 1 × 10^5 CFU per well of bacteria were incubated with different peptide concentrations in a 50 μL solution of Buffer Q consisting of 10 mM potassium phosphate buffer at pH 7.2 and 0.1% MB7H9 (3 h, 37 °C). Serial dilutions were then prepared in Buffer Q and plated in triplicate on MB7H9 plates, which were incubated (37 °C, 24 to 48 h) and CFUs counted. […] EC50 values were determined by plotting percent killing as a function of the log of peptide concentration (log μg/mL), and fitting the data from the antimicrobial assays to a standard sigmoidal dose-response curve, using Equation (1), where Y corresponds to bacterial killing (%) at a given peptide concentration (μg/mL), with X being the logarithm of that concentration (log μg/mL). In the equation, “Top” and “Bottom” refer to the upper and lower boundaries, and were constrained to values <100% and >0%, respectively.

M. smegmatis [3] = conditions: for MIC: 48 h
M. tuberculosis [4] = conditions: LL-37 ref 30; hBD3 ref 33; cited from earlier work
Procedure: While the EC50 experiments are typically carried out in 10 mM phosphate buffer with pH 7.2 for 3 h, the Minimal Inhibitory Concentration (MIC) is determined in bacterial broth (resulting in a higher salt concentration) with a 48 h incubation. We confirmed the sensitivity of M. smegmatis to common antibiotics such as polymyxin B, rifampicin, and fosmidomycin [35, 36, 37]. […] The reported MIC of full-length hBD ...

M. tuberculosis [5] = conditions: 100 μg/mL of peptide; cited from earlier work
M. smegmatis [6] = experiment: Ethidium bromide uptake assay (membrane permeation); conditions: 50 μg/mL peptide, 10 μM ethidium bromide, examined at 20 min, 37 °C, n = 3, Figure 2
Procedure: Bacterial cytoplasmic membrane permeation is monitored by using the ethidium bromide uptake assay. […] M. smegmatis is grown until log phase in MB7H9 (Difco) broth with 2% (w/v) glucose as the carbon source, and 0.05% (v/v) Tween 80 in a shaking incubator (37 °C). Bacteria is centrifuged, washed with PBS, and then adjusted to an OD 600 nm of 0.1 Phosphate Buffer. 180 μL of bacteria is added to 10 μL ethidium bromide (10 μM final concentration) and 10 μL peptide in various concentrations, the experiment was performed in triplicate. The plate is read in a Tecan Safire^2 spectrofluorometer every 2 min for 30 min at 37 °C: (excitation = 540 nm, emission = 590 nm). Peak RFU at 20 min is used in Figure 2, and values were analyzed against wells with no peptide treatment with a Student’s t-test.
Permeablization of membrane after 20 min was compared. Experiments were performed in triplicate (n = 3).

M. smegmatis [7] = tested on: M. smegmatis; design: method as in earlier work; conditions: 10 μg/mL of LL-37; ref 9 (Sonawane et al.); cited from earlier work
M. smegmatis mc^2155 [8] = experiment: microbe, parasite or virus in culture; conditions: Mycolicibacterium smegmatis, MC^2155, 3 h
Procedure: as §1, §2

[9] = cited from earlier work
M. smegmatis [10] = experiment: microbe, parasite or virus in culture; conditions: Mycolicibacterium smegmatis, 48 h
M. smegmatis [11] = experiment: microbe, parasite or virus in culture; conditions: Mycolicibacterium smegmatis, 72 h, read-out: MIC Alone
[12] = in combination with polymyxin B
[13] = peptide combined with polymyxin B
[14] = from EC50 in μM, above 1 = more potent than rifampicin
[15] = same assay as μg/mL value, 3 h, 10 mM phosphate buffer
[16] = from MIC in μM, above 1 = less potent than rifampicin

With `CC[C@H](C)[C@H](NC(=O)[C@H](CCCCN)NC(=O)[C@H](CCC(=O)O)NC(=O)[C@H](CCCCN)NC(=O)[C@H](CO)NC(=O)[C@H](CCCCN)NC(=O)[C@H](CCCNC(=N)N)NC(=O)[C@H](Cc1ccccc1)NC(=O)[C@H](Cc1ccccc1)NC(=O)[C@H](CC(=O)O)NC(=O)CNC(=O)[C@H](CC(C)C)NC(=O)[C@@H](N)CC(C)C)C(=O)NCC(=O)N[C@@H](CCCCN)C(=O)N[C@@H](CCC(=O)O)C(=O)N[C@@H](Cc1ccccc1)C(=O)N[C@@H](CCCCN)C(=O)N[C@@H](CCCNC(=N)N)C(=O)N[C@H](C(=O)N[C@H](C(=O)N[C@@H](CCC(N)=O)C(=O)N[C@@H](CCCNC(=N)N)C(=O)N[C@H](C(=O)N[C@@H](CCCCN)C(=O)N[C@@H](CC(=O)O)C(=O)N[C@@H](Cc1ccccc1)C(=O)N[C@@H](CC(C)C)C(=O)N[C@@H](CCCNC(=N)N)C(=O)N[C@@H](CC(N)=O)C(=O)N[C@@H](CC(C)C)C(=O)N[C@H](C(=O)N1CCC[C@H]1C(=O)N[C@@H](CCCNC(=N)N)C(=O)N[C@H](C(=O)N[C@@H](CCC(=O)O)C(=O)N[C@@H](CO)C(=O)O)[C@@H](C)O)C(C)C)[C@@H](C)CC)C(C)C)[C@@H](C)CC` [LL-37] the “MIC Alone” value (M. smegmatis [1]; 72 h) was 31.3 µg/mL, the “FIC (peptide)” value (M. smegmatis [1]; [12]) was 0.12 and the “FIC (peptide)” value (M. smegmatis [1]; in combination with rifampicin) was 0.12. For the same compound, the FICI (M. smegmatis [1]; [13]) was 0.37, the Membrane depolarization (M. smegmatis membrane; DiSC3(5) 50 μg/mL, within 1 min, peptide 50, 25, 5 and 0.5 μg/mL, phosphate buffer pH 7.2, n = 6, Figure 1) was greater than 70% and the “Lowest concentration that depolarizes the M. smegmatis membrane” value (M. smegmatis membrane; DiSC3(5), p < 0.001) was no more than 0.5 µg/mL. For the same compound, the EC50 (M. smegmatis mc^2155 [2]; 1 × 10^5 CFU per well, 10 mM potassium phosphate buffer pH 7.2 with 0.1% MB7H9, 3 h, 37 °C, CFU plated in triplicate, sigmoidal fit) was 0.27 µg/mL, the “Fold vs. Rifampicin” value (M. smegmatis mc^2155 [2]; [14]) was 2.65 and the EC50 (M. smegmatis mc^2155 [2]; [15]) was 60 nM. The “Fold vs. Rifampicin (μM)” value (M. smegmatis [3]; [16]) was 0.85, the “MIC against M. tuberculosis” value (M. tuberculosis [4]) was 5 µg/mL (≈ 1.11 µM) and the “Killing of M. tuberculosis” value (M. tuberculosis [5]) was 65%. The “Extent of permeabilization (ethidium bromide uptake)” value (M. smegmatis [6]) was “very efficient” and the Intracellular killing (M. smegmatis [7]) was 50%.
For `O=CN(O)CCCP(=O)(O)O` [Fosmidomycin], the “Fold vs. Rifampicin” value (M. smegmatis mc^2155 [2]; [14]) was 0.20, the “Fold vs. Rifampicin (μM)” value (M. smegmatis [3]; [16]) was 0.39 and the EC50 (M. smegmatis mc^2155 [8]) was 780 nM. The EC50 (M. smegmatis mc^2155 [8]; pH 7.2) was 0.14 µg/mL.
RGRRSSRRKK-NH2 [hBD3-Pep4] showed an EC50 (M. smegmatis mc^2155 [2]; mc^2155, 3 h) of 287 nM and an MIC (M. smegmatis [3]) of 48.65 µM.
In the case of KRAKKFFKKLK-NH2 [ATRA-1A], the “FIC (peptide)” value (M. smegmatis [1]; [12]) is reported as 0.12, the FICI (M. smegmatis [1]; [13]) is reported as 0.37 and the FICI (M. smegmatis [1]; peptide combined with rifampicin) is reported as 0.56. The EC50 (M. smegmatis mc^2155 [2]; [15]) was 35 nM and the Hemolysis ([9]; compared to PBS (pH 7)) was “did not elicit statistically significant hemolysis”.
In the case of `CC[C@H](C)CCCCC(=O)N[C@@H](CCN)C(=O)N[C@H](C(=O)N[C@@H](CCN)C(=O)N[C@H]1CCNC(=O)[C@H]([C@@H](C)O)NC(=O)[C@H](CCN)NC(=O)[C@H](CCN)NC(=O)[C@H](CC(C)C)NC(=O)[C@@H](Cc2ccccc2)NC(=O)[C@H](CCN)NC1=O)[C@@H](C)O` [Polymyxin B] (X1-[Dab]T[Dab][Dab][Dab][dF]L[Dab][Dab]T; lactam 4-C (inferred); N-terminus assumed), the “MIC Alone” value (M. smegmatis [1]; 72 h) is reported as 7.8 µg/mL, the “Fold vs. Rifampicin” value (M. smegmatis mc^2155 [2]) is reported as 1.65 and the EC50 (M. smegmatis mc^2155 [2]; mc^2155, 3 h) is reported as 96 nM. For the same compound, the “Fold vs. Rifampicin (μM)” value (M. smegmatis [3]) was 1.26 and the MIC (M. smegmatis [3]) was 5.99 µM (≈ 7.21 µg/mL).
With `CO[C@H]1/C=C/O[C@@]2(C)Oc3c(C)c(O)c4c(O)c(c(/C=N/N5CCN(C)CC5)c(O)c4c3C2=O)NC(=O)/C(C)=C\C=C\[C@H](C)[C@H](O)[C@@H](C)[C@@H](O)[C@@H](C)[C@H](OC(C)=O)[C@@H]1C` [Rifampicin] the “MIC Combined (antibiotic)” value (M. smegmatis [1]; in combination with ATRA-1A, 72 h) was 1.95 µg/mL, the “MIC Combined (antibiotic)” value (M. smegmatis [1]; in combination with LL-37, 72 h) was 0.97 µg/mL and the “MIC Combined (antibiotic)” value (M. smegmatis [1]; in combination with hBD3-Pep4, 72 h) was 1.95 µg/mL. For the same compound, the “MIC Combined (antibiotic)” value (M. smegmatis [1]; in combination with mCRAMP, 72 h) was 0.97 µg/mL, the “FIC (antibiotic)” value (M. smegmatis [1]; in combination with ATRA-1A) was 0.5 and the “FIC (antibiotic)” value (M. smegmatis [1]; in combination with LL-37) was 0.25. For the same compound, the “FIC (antibiotic)” value (M. smegmatis [1]; in combination with hBD3-Pep4) was 0.5, the “FIC (antibiotic)” value (M. smegmatis [1]; in combination with mCRAMP) was 0.25 and the MIC (M. smegmatis [10]) was 3.9 µg/mL and 4.73 µM. The “Fold vs. Rifampicin” value (M. smegmatis mc^2155 [2]; [14]) was 1.0, the MIC (M. smegmatis [11]) was 3.9 µg/mL (≈ 4.74 µM) and the “Fold vs. Rifampicin (μM)” value (M. smegmatis [3]; [16]) was 1. The EC50 (M. smegmatis mc^2155 [8]) was 159 nM and the EC50 (M. smegmatis mc^2155 [8]; pH 7.2) was 0.13 µg/mL.
In the case of “GLLRKGGEKIGEKLKKIGQKIKNFFQKLVPQPEQ [mCRAMP]”, the EC50 (M. smegmatis mc^2155 [2]; mc^2155, 3 h) is listed as 44 nM, the Hemolytic activity [9] is listed as “no hemolytic activity” and the MIC (M. smegmatis [3]) is listed as 4.02 µM.
